Results on seven compounds are retold here after patent US20230295200A1 (REGENTS OF THE UNIVERSITY OF MICHIGAN, priority 2022, published 2023).

For the test, the target named is T1, STAT6 protein (Homo sapiens, UniProt P42226).
T1 sequence (P42226 1-847): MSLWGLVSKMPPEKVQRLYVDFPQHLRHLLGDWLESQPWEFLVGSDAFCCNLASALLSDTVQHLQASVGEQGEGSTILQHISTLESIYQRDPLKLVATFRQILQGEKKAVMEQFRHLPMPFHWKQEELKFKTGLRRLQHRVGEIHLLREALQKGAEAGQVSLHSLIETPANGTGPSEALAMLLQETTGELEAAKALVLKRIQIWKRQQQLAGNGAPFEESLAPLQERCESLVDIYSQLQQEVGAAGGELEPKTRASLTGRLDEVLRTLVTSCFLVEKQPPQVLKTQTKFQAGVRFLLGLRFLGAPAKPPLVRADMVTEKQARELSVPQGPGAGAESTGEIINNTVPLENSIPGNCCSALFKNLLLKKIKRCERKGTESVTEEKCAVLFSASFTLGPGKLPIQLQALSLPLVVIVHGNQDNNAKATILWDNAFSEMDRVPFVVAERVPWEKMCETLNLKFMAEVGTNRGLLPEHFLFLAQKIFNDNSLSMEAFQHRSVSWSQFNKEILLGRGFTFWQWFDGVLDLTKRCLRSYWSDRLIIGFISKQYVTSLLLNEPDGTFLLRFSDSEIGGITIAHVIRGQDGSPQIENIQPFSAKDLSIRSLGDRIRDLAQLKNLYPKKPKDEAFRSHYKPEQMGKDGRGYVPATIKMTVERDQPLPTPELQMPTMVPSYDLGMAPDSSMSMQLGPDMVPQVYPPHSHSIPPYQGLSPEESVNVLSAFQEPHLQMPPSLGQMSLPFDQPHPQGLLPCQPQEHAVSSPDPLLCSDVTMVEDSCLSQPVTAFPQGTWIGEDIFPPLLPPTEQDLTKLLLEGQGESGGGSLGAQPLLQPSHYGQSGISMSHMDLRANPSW
The test is described as follows: Fluorescence polarization (FP) binding assay, STAT6. As to conditions: FP competition, 5 nM fluorescein-labeled tracer, 200 nM protein, PBS pH7.4; read-out: Binding STAT6. On the procedure:
Evaluation of the activity of the inhibitors may be accomplished by fluorescence polarization (FP) experiments. A representative general protocol is the following:
Fluorescence polarization (FP) experiments are performed in black round-bottom plates using the CLARIOstar microplate reader. To each well, fluorescein-labeled tracer and STAT5 or STAT6 protein are added in assay buffer. […] The inhibition constants are determined as the concentration of the STAT5 or STAT6 at which 50% of the ligand is bound.
Fluorescence polarization (FP) experiments were performed in 96-well, black round-bottom plates (Microfluor 2, Fisher Scientific) using the CLARIOstar microplate reader (BMG Labtech). To each well, 5 nM of fluoresceinlabeled tracer and 200 nM of STAT5 and/or STAT6 protein were added to a final volume of 100 μl in the assay buffer (PBS pH7.4+0.01% BGG+0.01% Tween-20, 2 mM DTT). The plate was mixed on a shaker for 15 m and incubated at room temperature for 1 h to reach equilibrium. […] All experimental data were analyzed using Prism 8.0 software (GraphPad Software), and the inhibition constants were determined by nonlinear curve fitting as the concentration of the STAT5 and/or STAT6 at which 50% of the ligand is bound.
Turning to `CCOC(=O)CO[C@H]1C[C@@H](C(=O)N(CCC(=O)O)c2ccc(Br)cc2)N(C(=O)[C@@H](NC(=O)c2cc3cc(C(F)(F)P(=O)(O)O)ccc3s2)C(C)(C)C)C1` [Compound 47, 3-((2S,4S)-N-(4-bromophenyl)-1-((S)-2-(5-(difluoro(phosphono)methyl)benzo [b]thiophene-2-carboxamido)-3,3-dimethylbutanoyl)-4-(2-ethoxy-2-oxoethoxy)pyrrolidine-2-carboxamido)propanoic acid], the Ki fell in the range of 100 to 1000 nM. The figure for `CCOC(=O)CO[C@@H]1C[C@@H](C(=O)N(CCC(=O)O)c2ccc(Br)cc2)N(C(=O)[C@@H](NC(=O)c2cc3cc(C(F)(F)P(=O)(O)O)ccc3s2)C(C)(C)C)C1` [Compound 48, 3-((2S,4R)-N-(4-bromophenyl)-1-((S)-2-(5-(difluoro(phosphono)methyl)benzo[b]thiophene-2-carboxamido)-3,3-dimethylbutanoyl)-4-(2-ethoxy-2-oxoethoxy)pyrrolidine-2-carboxamido)propanoic acid] is 100 to 1000 nM.

`CC(C)(C)[C@H](NC(=O)c1cc2cc(C(F)(F)P(=O)(O)O)ccc2s1)C(=O)N1C[C@@H](OCC(=O)O)C[C@H]1C(=O)N(CCC(=O)O)c1ccc(Br)cc1` [Compound 49, 3-((2S,4S)-N-(4-bromophenyl)-4-(carboxymethoxy)-1-((S)-2-(5-(difluoro(phosphono)methyl)benzo[b]thiophene-2-carboxamido)-3,3-dimethylbutanoyl)pyrrolidine-2-carboxamido)propanoic acid]: the Ki is 100 to 1000 nM.

On to `CC(C)(C)[C@H](NC(=O)c1cc2cc(C(F)(F)P(=O)(O)O)ccc2s1)C(=O)N1C[C@H](OCC(=O)O)C[C@H]1C(=O)N(CCC(=O)O)c1ccc(Br)cc1` [Compound 50, 3-((2S,4R)-N-(4-bromophenyl)-4-(carboxymethoxy)-1-((S)-2-(5-(difluoro(phosphono)methyl)benzo[b]thiophene-2-carboxamido)-3,3-dimethylbutanoyl)pyrrolidine-2-carboxamido)propanoic acid], for which the Ki lay in the range of 100 to 1000 nM.

With `CNC(=O)CCN(C(=O)[C@@H]1C[C@H](OCC(=O)NC)CN1C(=O)[C@@H](NC(=O)c1cc2cc(C(F)(F)P(=O)(O)O)ccc2s1)C(C)(C)C)c1ccc(Br)cc1` [Compound 51, ((2-(((S)-1-((2S,4S)-2-((4-bromophenyl)(3-(methylamino)-3-oxopropyl)carbamoyl)-4-(2-(methylamino)-2-oxoethoxy)pyrrolidin-1-yl)-3,3-dimethyl-1-oxobutan-2-yl)carbamoyl)benzo[b]thiophen-5-yl)difluoromethyl)phosphonic acid], the Ki lay within 100 to 1000 nM. For the compound `CNC(=O)CCN(C(=O)[C@@H]1C[C@@H](OCC(=O)NC)CN1C(=O)[C@@H](NC(=O)c1cc2cc(C(F)(F)P(=O)(O)O)ccc2s1)C(C)(C)C)c1ccc(Br)cc1` [Compound 52, ((2-(((S)-1-((2S,4R)-2-((4-bromophenyl)(3-(methylamino)-3-oxopropyl)carbamoyl)-4-(2-(methylamino)-2-oxoethoxy)pyrrolidin-1-yl)-3,3-dimethyl-1-oxobutan-2-yl)carbamoyl)benzo[b]thiophen-5-yl)difluoromethyl)phosphonic acid], the Ki was 100 to 1000 nM. The same measure for `CCOC(=O)CO[C@H]1C[C@@H](C(=O)Nc2ccc(I)cc2)N(C(=O)[C@@H](NC(=O)c2cc3cc(C(F)(F)P(=O)(O)O)ccc3s2)C(C)(C)C)C1` [Compound 53, ((2-(((S)-1-((2S,4S)-4-(2-ethoxy-2-oxoethoxy)-2-((4-iodophenyl)carbamoyl)pyrrolidin-1-yl)-3,3-dimethyl-1-oxobutan-2-yl)carbamoyl)benzo[b]thiophen-5-yl)difluoromethyl)phosphonic acid]: 1000 to 10000 nM.
